In US10167262B2, “Herbicidal substituted 3-arylpyrazoles” (FMC CORPORATION, priority 2014, dated 2019):

Experiments:
Type in all cases: in vivo
[1] = tested on: barnyardgrass (Echinochloa crus-galli); experiment: Test A pre-/postemergence greenhouse herbicide test, visual injury rating 0-100; conditions: 1000 g ai/ha
Procedure, shortened: (§1)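 Seeds sown in loam soil–sand blend; preemergence directed soil spray and, simultaneously, postemergence spray on plants 2 to 10 cm tall at one- to two-leaf stage. Compounds formulated in non-phytotoxic solvent mixture with surfactant. Injury rated visually versus untreated controls after ~10 days in greenhouse.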

corn (Zea mays) = experiment: as above; conditions: 1000 g ai/ha
Procedure, shortened: as §1

[2] = tested on: giant foxtail (Setaria faberii); experiment: as above; conditions: 1000 g ai/ha
Procedure, shortened: as §1

[3] = tested on: large (Lg) crabgrass (Digitaria sanguinalis); experiment: as above; conditions: 1000 g ai/ha
Procedure, shortened: as §1

[4] = tested on: morningglory (Ipomoea spp.); experiment: as above; conditions: 1000 g ai/ha
Procedure, shortened: as §1

[5] = tested on: pigweed (Amaranthus retroflexus); experiment: as above; conditions: 1000 g ai/ha
Procedure, shortened: as §1

[6] = tested on: velvetleaf (Abutilon theophrasti); experiment: as above; conditions: 1000 g ai/ha
Procedure, shortened: as §1

[7] = tested on: wheat (Triticum aestivum); experiment: as above; conditions: 1000 g ai/ha
Procedure, shortened: as §1

[8] = tested on: Italian ryegrass (Lolium multiflorum); experiment: Test C pre-/postemergence greenhouse test, plant response rating 0-100; conditions: Postemergence; for Plant response rating, Ryegrass, Italian: scale 0 to 100
Procedure, shortened: (§2)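 Formulated in solvent with surfactant, test chemicals were sprayed on seeded loam/sand pots and, concurrently, on young plants 2–18 cm tall. Evaluation: visual, versus controls, day 13–15.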

[9] = tested on: galium (catchweed bedstraw, Galium aparine); experiment: as above; conditions: Postemergence; for Plant response rating, Galium: scale 0 to 100
Procedure, shortened: as §2

[10] = tested on: large (Lg) crabgrass (Digitaria sanguinalis); experiment: as above; conditions: Postemergence; for Plant response rating, Crabgrass, Large: scale 0 to 100
Procedure, shortened: as §2

[11] = tested on: ragweed (common ragweed, Ambrosia elatior); experiment: as above; conditions: Postemergence; for Plant response rating, Ragweed: scale 0 to 100;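 as to all read-outs here: 0 is no effect and 100 is complete control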
Procedure, shortened: as §2

[12] = tested on: yellow nutsedge (Cyperus esculentus); experiment: as above; conditions: Postemergence; for Plant response rating, Nutsedge, Yellow: scale 0 to 100
Procedure, shortened: as §2

Row | Compound | Plant response rating (0 to 100 scale), Barnyardgrass ([1]; Postemergence) | Plant response rating (0 to 100 scale), Barnyardgrass ([1]; Preemergence) | Plant response rating (0 to 100 scale), Corn (corn (Zea mays); Postemergence) | Plant response rating (0 to 100 scale), Corn (corn (Zea mays); Preemergence) | Plant response rating (0 to 100 scale), Foxtail, Giant ([2]; Postemergence) | Plant response rating (0 to 100 scale), Foxtail, Giant ([2]; Preemergence) | Plant response rating (0 to 100 scale), Crabgrass, Large ([3]; Postemergence) | Plant response rating (0 to 100 scale), Crabgrass, Large ([3]; Preemergence) | Plant response rating (0 to 100 scale), Morningglory ([4]; Postemergence) | Plant response rating (0 to 100 scale), Morningglory ([4]; Preemergence) | Plant response rating (0 to 100 scale), Pigweed ([5]; Postemergence) | Plant response rating (0 to 100 scale), Pigweed ([5]; Preemergence) | Plant response rating (0 to 100 scale), Velvetleaf ([6]; Postemergence) | Plant response rating (0 to 100 scale), Velvetleaf ([6]; Preemergence) | Plant response rating (0 to 100 scale), Wheat ([7]; Postemergence) | Plant response rating (0 to 100 scale), Wheat ([7]; Preemergence) | Plant response rating (0 to 100), Ryegrass, Italian ([8]; 62 g ai/ha) | Plant response rating (0 to 100), Ryegrass, Italian ([8]; 125 g ai/ha) | Plant response rating, Ryegrass, Italian ([8]; 250 g ai/ha) | Plant response rating (0 to 100), Galium ([9]; 62 g ai/ha) | further results
1 | ON=C(c1ccccc1)c1c[nH]nc1-c1cc(Cl)cc(Cl)c1 [Compound 50] | 0 | 0 | 0 | 0 | 10 | 0 | 0 | 0 | 0 | 0 | 90 | 100 | 100 | 90 | 0 | 0 | 0 | 0 | 0 | 0 | Plant response rating (0 to 100), Galium ([9]; 31 g ai/ha): 0; Plant response rating (0 to 100), Galium ([9]; 125 g ai/ha): 5; Plant response rating, Galium ([9]; 250 g ai/ha): 5; Plant response rating (0 to 100), Crabgrass, Large ([10]; 31 g ai/ha): 0; Plant response rating (0 to 100), Crabgrass, Large ([10]; 62 g ai/ha): 0; Plant response rating (0 to 100), Crabgrass, Large ([10]; 125 g ai/ha): 0; Plant response rating, Crabgrass, Large ([10]; 250 g ai/ha): 0; Plant response rating (0 to 100), Ragweed ([11]; 62 g ai/ha): 0; Plant response rating (0 to 100), Ragweed ([11]; 125 g ai/ha): 0; Plant response rating, Ragweed ([11]; 250 g ai/ha): 45; Plant response rating (0 to 100), Nutsedge, Yellow ([12]; 62 g ai/ha): 0; Plant response rating (0 to 100), Nutsedge, Yellow ([12]; 125 g ai/ha): 0; Plant response rating, Nutsedge, Yellow ([12]; 250 g ai/ha): 0
2 | Cn1cc(C(=O)c2ccccc2)c(-c2cc(Br)cc(Br)c2)n1 [Compound 53] | 0 | 0 | 0 | 0 | 0 | 0 | 0 | 0 | 0 | 0 | 100 | 90 | 90 | 60 | 0 | 0 | 0 | 0 | 0 | 0 | Plant response rating, Ryegrass, Italian ([8]; 500 g ai/ha): 0; Plant response rating (0 to 100), Galium ([9]; 125 g ai/ha): 0; Plant response rating, Galium ([9]; 250 g ai/ha): 0; Plant response rating, Galium ([9]; 500 g ai/ha): 10; Plant response rating (0 to 100), Crabgrass, Large ([10]; 62 g ai/ha): 0; Plant response rating (0 to 100), Crabgrass, Large ([10]; 125 g ai/ha): 0; Plant response rating, Crabgrass, Large ([10]; 250 g ai/ha): 0; Plant response rating, Crabgrass, Large ([10]; 500 g ai/ha): 0; Plant response rating (0 to 100), Ragweed ([11]; 62 g ai/ha): 10; Plant response rating (0 to 100), Ragweed ([11]; 125 g ai/ha): 10; Plant response rating, Ragweed ([11]; 250 g ai/ha): 10; Plant response rating, Ragweed ([11]; 500 g ai/ha): 10; Plant response rating (0 to 100), Nutsedge, Yellow ([12]; 62 g ai/ha): 0; Plant response rating (0 to 100), Nutsedge, Yellow ([12]; 125 g ai/ha): 0; Plant response rating, Nutsedge, Yellow ([12]; 250 g ai/ha): 0; Plant response rating, Nutsedge, Yellow ([12]; 500 g ai/ha): 0
